# According to patent US20100151104A1, “Preservative System For Beverages Based On Combinations Of Trans-Cinnamic Acid, Lauric Arginate, And Dimethyl Dicarbonate” (priority 2008, published 2010):
# Values joined by “and” are separate entries in the source; they are usually repeats but may differ in a detail not shown here. Equal values may be shown once.
# Experiments:
# yeast and mold = settings: recommended by inventor & manufacturer of LAE; cited from earlier work
# [1] = test system: Brettanomyces bruxellensus; test: Growth in 10% apple juice beverage with combinations of LAE & cinnamic acid; log (QA/Qa+QB/Qb) calculation; type: cell-based
# Source text: Trans-cinnamic acid and lauric arginate were combined in the following beverage formulation: [table] […] The analysis of the interaction between lauric arginate and cinnamic acid can be refined through use of a mathematical method developed by Voorspuij and Nass (Arch. Int. pharmacodyn. 59:211 1957) (generally accepted among those practiced in the art.) Herein, the interactions between two active substances can be explored. First the quantity (Qa=Molar Cone) of compound A required for an end point (concentration required to stabilize product for 16 weeks) is established. Similarly, the quantity (Qb =Molar cone) of substance B required to establish the same endpoint is established. Thereafter, mixtures of A & B, in quantities QA & Qs are established that also define endpoints. […] If the sum of the ratios for a mixture of A & Bare=1, then the interaction is considered additive. […] Calculation of log (QA/Qa+QB/Qb) for LAE+trans Cinnamic Acid vs Brettanomyces bruzellensus
# fungal strains = settings: prior art; incubation no greater than 72 hours; cited from earlier work
# [2] = pKa and un-dissociated fraction of cinnamic acid; type: physicochemical
# Source text: It should be noted that cinnamic acid has a particularly high plc, value (4.42) and at least 45% of the cinnamic acid added to beverage is in the form of the un-dissociated acid.
# [3] = test system: Zygosaccharomyces bisporous and Zygosaccharomyces bailii; test: Tolerance of fungal strains to cinnamic acid over 16 weeks incubation; type: cell-based
# Method: Over a period of incubation of 16 weeks, fungal strains are found to be tolerant to cinnamic acid at concentrations as high as 300 ppm, or even as high as 450 ppm cinnamic acid (pH 3.4). Thus, cinnamic acid, as a stand alone preservative, would need to be present at a concentrations as high as 450 ppm (e.g. between 450-500) in order to be assured that of preservation against spoilage by organisms such as Zygosaccharomyces bisporous and Zygosaccharomyces bailii for a period of at least 16 weeks. […] Beverage product case packaged in a container and which must pass through lengthy channels of distribution before reaching the consumer need be stable for a period as long as 16 weeks.
# [4] = stand alone, end point = concentration required to stabilize product for 16 weeks
structure (smiles),measurement,setting,value
"CCCCCCCCCCCC(=O)N[C@@H](CCCNC(=N)N)C(=O)OCC.Cl [LAE, ethyl-N-lauroyl-L-argniate hydrochloride]",recommended stand alone concentration to stabilize beverages against spoilage,yeast and mold,128 ppm
same,amount of growth (normalized) to control,"[1]; pH 3.0, LAE 2.5 ppm, Cinnamic Acid 0 ppm",97%
same,amount of growth (normalized) to control,"[1]; pH 3.0, LAE 5 ppm, Cinnamic Acid 0 ppm",101%
same,amount of growth (normalized) to control,"[1]; pH 3.0, LAE 7.5 ppm, Cinnamic Acid 0 ppm",96%
same,amount of growth (normalized) to control,"[1]; pH 3.0, LAE 10 ppm, Cinnamic Acid 0 ppm",102%
same,amount of growth (normalized) to control,"[1]; pH 3.0, LAE 15 ppm, Cinnamic Acid 0 ppm",94%
same,amount of growth (normalized) to control,"[1]; pH 3.5, LAE 2.5 ppm, Cinnamic Acid 0 ppm",96%
same,amount of growth (normalized) to control,"[1]; pH 3.5, LAE 5 ppm, Cinnamic Acid 0 ppm",106%
same,amount of growth (normalized) to control,"[1]; pH 3.5, LAE 7.5 ppm, Cinnamic Acid 0 ppm",110%
same,amount of growth (normalized) to control,"[1]; pH 3.5, LAE 10 ppm, Cinnamic Acid 0 ppm",114%
same,amount of growth (normalized) to control,"[1]; pH 3.5, LAE 15 ppm, Cinnamic Acid 0 ppm",118%
same,amount of growth (normalized) to control,"[1]; pH 4.0, LAE 2.5 ppm, Cinnamic Acid 0 ppm",115%
same,amount of growth (normalized) to control,"[1]; pH 4.0, LAE 5 ppm, Cinnamic Acid 0 ppm",125%
same,amount of growth (normalized) to control,"[1]; pH 4.0, LAE 7.5 ppm, Cinnamic Acid 0 ppm",124%
same,amount of growth (normalized) to control,"[1]; pH 4.0, LAE 10 ppm, Cinnamic Acid 0 ppm",124%
same,amount of growth (normalized) to control,"[1]; pH 4.0, LAE 15 ppm, Cinnamic Acid 0 ppm",131%
same,QLAE* (quantity of LAE alone required for the end point),[1]; [4],QLAE* 30
"O=C(O)/C=C/c1ccccc1 [Cinnamic Acid, trans-cinnamic acid]",MIC,fungal strains,125-180 ppm
same,cinnamic acid in the form of the un-dissociated acid,[2]; beverage pH 4.5,at least 45%
same,cinnamic acid in the form of the un-dissociated acid,[2]; pH 5.5,≤ 7.6%
same,QA/Qa + QB/Qb,"[1]; QLAE 0, QCA 75",1.00
same,QLAE/QLAE*,"[1]; QLAE 0, QCA 75",0.00
same,QNaB/QNAB*,"[1]; QLAE 0, QCA 75",1.00
same,log (QA/Qa + QB/Qb),"[1]; QLAE 0, QCA 75",0.0000
same,amount of growth (normalized) to control,"[1]; pH 3.0, LAE 0 ppm, Cinnamic Acid 10 ppm",85%
same,amount of growth (normalized) to control,"[1]; pH 3.0, LAE 0 ppm, Cinnamic Acid 20 ppm",82%
same,amount of growth (normalized) to control,"[1]; pH 3.0, LAE 0 ppm, Cinnamic Acid 50 ppm",4%
same,amount of growth (normalized) to control,"[1]; pH 3.0, LAE 0 ppm, Cinnamic Acid 75 ppm",1%
same,amount of growth (normalized) to control,"[1]; pH 3.0, LAE 0 ppm, Cinnamic Acid 100 ppm",1%
same,amount of growth (normalized) to control,"[1]; pH 3.5, LAE 0 ppm, Cinnamic Acid 10 ppm",90%
same,amount of growth (normalized) to control,"[1]; pH 3.5, LAE 0 ppm, Cinnamic Acid 20 ppm",89%
same,amount of growth (normalized) to control,"[1]; pH 3.5, LAE 0 ppm, Cinnamic Acid 50 ppm",27%
same,amount of growth (normalized) to control,"[1]; pH 3.5, LAE 0 ppm, Cinnamic Acid 75 ppm",0%
same,amount of growth (normalized) to control,"[1]; pH 3.5, LAE 0 ppm, Cinnamic Acid 100 ppm",0%
same,amount of growth (normalized) to control,"[1]; pH 4.0, LAE 0 ppm, Cinnamic Acid 10 ppm",99%
same,amount of growth (normalized) to control,"[1]; pH 4.0, LAE 0 ppm, Cinnamic Acid 20 ppm",96%
same,amount of growth (normalized) to control,"[1]; pH 4.0, LAE 0 ppm, Cinnamic Acid 50 ppm",65%
same,amount of growth (normalized) to control,"[1]; pH 4.0, LAE 0 ppm, Cinnamic Acid 75 ppm",1%
same,amount of growth (normalized) to control,"[1]; pH 4.0, LAE 0 ppm, Cinnamic Acid 100 ppm",1%
same,QCA* (quantity of cinnamic acid alone required for the end point),[1]; [4],QCA* 75
same,concentration of cinnamic acid to which fungal strains are tolerant,"[3]; incubation of 16 weeks, pH 3.4",300 ppm and 450 ppm
same,stand alone concentration needed for preservation against spoilage for at least 16 weeks,"[3]; stand alone preservative, 16 weeks",450-500 ppm
